# Measurements taken from patent US12655171B2, “Compounds for activating invariant natural killer T-cells and methods of use in eliminating inflammatory senescent cells” (Deciduous Therapeutics, Inc., priority 2021, dated 2026).
# “Also recorded” adds a separate entry of the source.
# How the values were obtained:
# primary human iNKT cells = experiment: Cytokine secretion of primary human iNKT cells co-cultured with drug-loaded BWSTIM cells; type: cell-based; settings: BWSTIM loaded with 10 μg/mL; for IFNγ secretion compared to the no-compound control: FIG. 3A; for IL6 secretion compared to the no-compound control: FIG. 3B; for TNFα secretion compared to the no-compound control: FIG. 3C
# Procedure: In order to determine the activation profile induced by the compounds described herein, primary human iNKT cells were co-cultured with drug-loaded BWSTIM cells.
# Day 0: PBMCs were isolated from human blood using the STEMCELL TECHNOLOGIES™ SepMate™ PBMC isolation system. iNKT cells were then selected using the Miltenyi NKT magnetic cell separation kit.
# Day 2: DCD molecules or α-GalCer were both dissolved in DMSO at a 5 mg/mL stock solution. BWSTIM cells were fixed with mitomycin C, then loaded with 10 μg/mL of DCD molecules or α-GalCer for 4 hours at 37° C. at a concentration of 20 k cells/well in 200 μL of media in a u-bottom 96 well dish. Cells were co-cultured with 80 k 6B11+ selected primary human iNKT cells.
# D4: Media was collected. Cytokines were measured using the Satorious 4Plex kit on the iQue3 cytometer.
# GVK molecules or α-GalCer were both dissolved in DMSO at a 5 mg/mL stock solution. BWSTIM cells were loaded with compounds for 4 hours at 37° C. at a concentration of 20 k cells/well in 200 μL of media in a u-bottom 96 well dish. Cells were co-cultured with 100 k 6B11+ selected primary human iNKT cells. Media was collected 2 days later. Cytokines were measured using the Satorious 4Plex kit on the iQue3 cytometer.
# mouse iTCR = experiment: In vitro activation of mouse iTCR, DN3.2 iNKT hybridoma with drug-loaded BWSTIM cells, IL-2 secretion; type: cell-based; settings: for IL-2 secretion compared to α-GalCer: drug loaded at 0.01 μg/mL, 48 hours co-culture, FIG. 2
# Procedure: In order to determine the mouse iTCR activation potential induced by the compounds described herein, a mouse iNKT hybridoma cell line (DN3.2) from the La Jolla Institute for Allergy and Immunology were used as the iNKT. The BWS147 cell line (BWSTIM) with CD80 and CD1d acted as the antigen-presenting cell.
# DCD molecules or α-GalCer were both dissolved in DMSO at a 5 mg/mL stock solution. BWSTIM cells were loaded with DCD molecules or α-GalCer of varying concentrations for 4 hours at 37° C. at a concentration of 20 k cells/well in 200 μL of media in a u-bottom 96 well dish. BWSTIM cells were washed 2× with media, then incubated with DN3.2 cells at a concentration of 80 k cells/well in a u-bottom 96 well dish. Cells were co-cultured for 48 hours. Media was collected and IL-2 was measured using the CisBio HTRF ELISA detection kit.
# (§1) A jurkat cell line (JiNKT) was transfected with the human iTCR, and GFP under the NFkB promoter. A BWS147 cell line (BWSTIM) was also transfected with CD80 and CD1d to act as the antigen-presenting cell. A mouse iNKT hybridoma cell line (DN3.2) was also used as the iNKT. […]
# GVK molecules or α-GalCer were both dissolved in DMSO at a 5 mg/mL stock solution. BWSTIM cells were loaded with compounds for 4 hours at 37° C. at a concentration of 20 k cells/well in 200 μL of media in a u-bottom 96 well dish. BWSTIM cells were washed 2× with media, then incubated with DN3.2 cells at a concentration of 80 k cells/well in a u-bottom 96 well dish. Cells were co-cultured for 48 hours. Media was collected and IL-2 was measured using the CisBio HTRF ELISA detection kit.
# human iTCR = experiment: In vitro activation of human iTCR through Jurkat reporter cell line (JiNKT, GFP under NFkB promoter) with drug-loaded BWSTIM cells; type: cell-based; settings: BWSTIM loaded 4 hours, co-culture with JiNKT 18 to 24 hours; FIG. 1
# Procedure: In order to determine the human iTCR activation potential induced by the compounds described herein, a jurkat cell line (JiNKT) was transfected with the human iTCR, and GFP under the NFkB promoter (cell line licensed from the Medical University of Vienna). A BWS147 cell line (BWSTIM) was also transfected with CD80 and CD1d to act as the antigen-presenting cell.
# (§2) DCD molecules or α-GalCer were both dissolved in DMSO at a 5 mg/mL stock solution. BWSTIM cells were loaded with DCD molecules or α-GalCer at varying concentrations for 4 hours at 37° C. at a concentration of 20 k cells/well in 200 μL of media in a u-bottom 96 well dish. BWSTIM cells were washed 2× with media, then incubated with JiNKT cells at a concentration of 80 k cells/well in a u-bottom 96 well dish. Cells were co-cultured for 18 to 24 hours. The percentage of cells expressing high levels of GFP was measured through flow cytometry (after gating out the mCD45+ BWSTIM cells).
# as §1
# as §2, with “GVK” for “DCD”, “compounds” for “DCD molecules or α-GalCer at varying concentrations”, “for” for “for 18 to”, “cytometry. 1 μg/mL of molecule GVK1a, GVK1b, GVK1c, or GVK1f was incubated with BWSTIM+JiNKT, and compared to α-GalCer.” for “cytometry (after gating out the mCD45+ BWSTIM cells).”
# senescent cells in eWAT = experiment: Diet induced obesity (HFD) mouse model: senescent cells (C12FDG+) in eWAT; type: in vivo, C57BL/6J mice; settings: HFD mice, four days post-injection; FIG. 5E
# Procedure: (§3) Senescence is a feature of pre-adipocytes in obese individuals. To study the efficacy of the molecules described herein in decreasing senescence in fat, a diet induced obesity high fat diet (HFD) mouse model was used. 22-week-old HFD mice were injected with α-GalCer as a control and compared with the compounds of the present disclosure. The blood and spleen (or adipose tissue) were collected to measure iNKT activation and expansion, respectively. Cells in the eWAT (adipose tissue) were also collected and measured for % senescent cells. HFD mice were compared to non-HFD (normal diet) mice.
# (§4) 22-week-old C57BL/6J mice on a chow or high-fat diet (HFD) were injected (I.P) with […] of α-GalCer, compound DCD-101 or compound DCD-154. Molecules were either dissolved in DMSO at a 5 mg/mL stock solution, or formulated into liposomes through thin-film rehydration, then extrusion through 200 nm filters. Liposome-based formulations were constructed using soy phosphatidylcholine, cholesterol, and DCD or α-GalCer in a 2:1:0.15 ratio. Two or twenty hours post-injection, blood was collected from the tail to measure the level of IFNγ using ELISA. Four days post-injection, mice were sacrificed to collect eWAT or spleen. Spleen was used to measure the number of iNKT cells, and eWAT was used to measure the number of iNKT cells and senescent cells using flow cytometry. iNKT cells were identified in the digested adipose tissue by gating live cells and mouse CD1d-α-GalCer tetramer+ cells. Senescent cells were measured withing the processes adipose tissue by selecting mCD45− cells, and C12FDG^HIGH cells.
# IFNγ = experiment: Diet induced obesity (HFD) mouse model: serum IFNγ (ELISA); type: in vivo, C57BL/6J mice; settings: for secretion of IFNγ in the HFD mouse model: between two and twenty hours post-treatment
# Procedure: as §3, §4
# iNKT cells [1] = experiment: Diet induced obesity (HFD) mouse model: iNKT cell expansion in spleen or eWAT; type: in vivo, C57BL/6J mice; settings: HFD mice, I.P. 2 g, four days post-injection
# Procedure: as §3, §4
# serum IFNγ = experiment: In vivo serum IFNγ (ELISA) in C57BL/6J mice; settings: 2 μg I.P.; twenty hours post-injection; FIG. 4A
# Procedure: (§5) In order to determine the expansion induced by the molecules described herein, molecules were injected into C57BL/6J mice. Serum IFNγ levels and the expansion of iNKT cells within splenocytes was measured 4 days post-IP injection.
# (§6) Eight weeks old C57BL/6J mice were injected (I.P.) with 2 μg of α-GalCer or DCD molecules. Molecules were either dissolved in DMSO at a 5 mg/mL stock solution, or formulated into liposomes through thin-film rehydration, then extrusion through 200 nm filters. Liposome-based formulations were constructed using soy phosphatidylcholine, cholesterol, and DCD or α-GalCer in a 2:1:0.15 ratio. Twenty hours post-injection, blood was collected from the tail to measure the level of serum IFNγ using an ELISA kit from Biolegend. Four days post-injection, the mice were sacrificed and the spleenocytes were isolated. The percentage of iNKT cells within the spleens was measured using flow cytometry, selecting for live cells and mouse CD1d-α-GalCer tetramer+ cells.
# iNKT cells [2] = experiment: In vivo iNKT cell expansion in spleen of C57BL/6J mice (flow cytometry); settings: 2 μg I.P.; four days post-injection; FIG. 4B
# Procedure: as §5, §6
structure (smiles),measurement,setting,value
CCCCCCCCCCCCCC[C@@H](O)[C@@H](O)[C@H](COC1OC(CO)C(O)C(O)C1O)NC(=O)CCCCCCCCCCC12CC(F)(C1)C2 (stereo partly shown) [DCD-101],IFNγ secretion compared to the no-compound control,primary human iNKT cells,significantly higher levels
same,IL6 secretion compared to the no-compound control,primary human iNKT cells,significantly higher levels
same,TNFα secretion compared to the no-compound control,primary human iNKT cells,significantly higher levels
same,IL-2 secretion compared to α-GalCer,mouse iTCR,greater IL-2 secretion than α-GalCer
same,IL-2 secretion,"mouse iTCR; ranking among tested compounds, at the lowest concentrations",highest IL-2 secretion at the lowest concentrations
same,"EC50 of the dose response based on percentage GFP+ cells, compared to α-GalCer",human iTCR,lower EC50s compared to α-GalCer
same,accumulation of senescent cells (C12FDG+) in eWAT,senescent cells in eWAT,effective in decreasing the accumulation of senescent cells in eWAT; also recorded: Senescent cell reduction in adipose tissue is observed
same,secretion of IFNγ in the HFD mouse model,IFNγ,induce secretion of IFNγ
same,levels of serum IFNγ in the HFD model,"IFNγ; two hours post injection, FIG. 5C",significantly increased levels of IFNγ
same,expansion of immune (iNKT) cells in HFD mouse spleen,iNKT cells [1]; FIG. 5A,caused expansion of immune cells in HFD mouse spleen; also recorded: expand iNKT cells
CCCCCCCCCCCCCC[C@@H](O)[C@@H](O)[C@H](COC1OC(CO)C(O)C(O)C1O)NC(=O)CCCCCCCCCCC12CCC(CC1)CC2 (stereo partly shown) [DCD-102],IL-2 secretion compared to α-GalCer,mouse iTCR,greater IL-2 secretion than α-GalCer
CCCCCCCCCCCCCC[C@@H](O)[C@@H](O)[C@H](COC1OC(CO)C(O)C(O)C1O)NC(=O)CCCCCCCCCCC1CC1C (stereo partly shown) [DCD-106],IFNγ secretion compared to the no-compound control,primary human iNKT cells,significantly higher levels
same,IL6 secretion compared to the no-compound control,primary human iNKT cells,significantly higher levels
same,TNFα secretion compared to the no-compound control,primary human iNKT cells,significantly higher levels
same,IL-2 secretion compared to α-GalCer,mouse iTCR,greater IL-2 secretion than α-GalCer
same,"EC50 of the dose response based on percentage GFP+ cells, compared to α-GalCer",human iTCR,lower EC50s compared to α-GalCer
CCCCCCCCCCCCCC[C@@H](O)[C@@H](O)[C@H](COC1OC(CO)C(O)C(O)C1O)NC(=O)CCCCCCCCCCCCCCCCCCCCCCCC1COC1 (stereo partly shown) [DCD-153],average serum IFNγ compared to α-GalCer,serum IFNγ,higher than the average serum IFNγ of C57BL/6J mice treated with α-GalCer
same,"EC50 of the dose response based on percentage GFP+ cells, compared to α-GalCer",human iTCR,lower EC50s compared to α-GalCer
same,average iNKT cell isolated from the spleen compared to α-GalCer,iNKT cells [2],higher than mice treated with α-GalCer
CCCCCCCCCCCCCC[C@@H](O)[C@@H](O)[C@H](COC1OC(CO)C(O)C(O)C1O)NC(=O)CCCCCCCCCCC12CC(CCCCCCCCCCCCC)(C1)C2 (stereo partly shown) [DCD-154],average serum IFNγ compared to α-GalCer,serum IFNγ,higher than the average serum IFNγ of C57BL/6J mice treated with α-GalCer
same,accumulation of senescent cells (C12FDG+) in eWAT,senescent cells in eWAT,effective in decreasing the accumulation of senescent cells in eWAT; also recorded: Senescent cell reduction in adipose tissue is observed
same,secretion of IFNγ in the HFD mouse model,IFNγ,induce secretion of IFNγ
same,levels of IFNγ in the HFD model,"IFNγ; twenty hours post injection, FIG. 5D",significantly increased levels of IFNγ
same,average iNKT cell isolated from the spleen compared to α-GalCer,iNKT cells [2],higher than mice treated with α-GalCer
same,expansion of immune (iNKT) cells in HFD mouse eWAT,"iNKT cells [1]; percent iNKT cells of live cells, FIG. 5B",caused expansion of immune cells in HFD mouse eWAT; also recorded: expand iNKT cells
CCCCCCCCCCCCCC[C@@H](O)[C@@H](O)[C@H](COC1OC(CO)C(O)C(O)C1O)NC(=O)CCCCCCCCCCCCCCCCCCCCCCCC12CC(F)(C1)C2 (stereo partly shown) [DCD-155],average serum IFNγ compared to α-GalCer,serum IFNγ,higher than the average serum IFNγ of C57BL/6J mice treated with α-GalCer
same,"EC50 of the dose response based on percentage GFP+ cells, compared to α-GalCer",human iTCR,lower EC50s compared to α-GalCer
CCCCCCCCCCCCCC[C@@H](O)[C@@H](O)[C@H](COC1OC(CO)C(O)C(O)C1O)NC(=O)CCCCCCCCCCCCCCCCCCCCCCCCC12CC(F)(C1)C2 (stereo partly shown) [DCD-156],average serum IFNγ compared to α-GalCer,serum IFNγ,higher than the average serum IFNγ of C57BL/6J mice treated with α-GalCer
same,"EC50 of the dose response based on percentage GFP+ cells, compared to α-GalCer",human iTCR,lower EC50s compared to α-GalCer
CCCCCCCCCCCCCCCCC[Si](C)(C)CCCCCCCC(=O)N[C@@H](COC1OC(CO)C(O)C(O)C1O)[C@H](O)[C@H](O)CCCCCCCCCCCCCC (stereo partly shown) [DCD-157],average serum IFNγ compared to α-GalCer,serum IFNγ,higher than the average serum IFNγ of C57BL/6J mice treated with α-GalCer
same,"EC50 of the dose response based on percentage GFP+ cells, compared to α-GalCer",human iTCR,lower EC50s compared to α-GalCer
